For five compounds, IC50 results are on record in ChEMBL document CHEMBL3046734, “Molecular insights to explore abietane diterpenes as new LOX inhibitors” (Med Chem Res, 2013).

A short description of experiment [1]: Inhibition of Soybean LOX using linoleic acid as substrate incubated for 5 mins prior to substrate addition measured after 10 mins by spectrophotometric analysis. Also noted: species or system Glycine max.
Experiment [2] can be described thus: Inhibition of LOX (unknown origin). On the set-up: species or system Homo sapiens.

A word on the IC50: it is the concentration that gives 50% inhibition. A higher IC50 goes with lower potency. As to `O=c1cc(-c2ccccc2)oc2cc(O)c(O)c(O)c12` [BAICALEIN], in experiment [1], the IC50 was found to be 22.1 µM.

The compound `NC(=O)n1c(O)c(C(=O)c2cccs2)c2cc(Cl)ccc21` [TANIDAP SODIUM] yielded an IC50 in experiment [1] of 41.6 µM. Compared with the last compound, the IC50 is about 1.9-fold higher.

In experiment [2], `COc1c(C(C)C)cc2c(c1O)[C@@]1(C)CCC(=O)C(C)(C)[C@@H]1CC2=O` [TAXUSABIETANE A] showed an IC50 of 57 µM.

Compound `COc1c(C(C)C)cc2c(c1O)C=C1C=CC(=O)C(C)(C)C1CC2=O` (stereo not given) [TAXAMAIRIN F] registered a half-inhibitory concentration (IC50) in experiment [1] of 73 µM.

For the compound `COc1c(C(C)C)cc2c(c1OC)[C@@]13CCC(=O)C(C)(C)[C@@H]1[C@H](OC3=O)C2=O` [TAXUSABIETANE C], the 50% inhibitory concentration (IC50) in experiment [1] is 69 µM.
